Counter-ions that a name gives are not always drawn.
What follows are compounds tested against T1, vanilloid receptor (Rattus norvegicus, UniProt O35433) (assay: 45Ca influx test in cultured neonatal rat DRG neurons, inhibition of capsaicin response). Details: neonatal rat DRG neurons, capsaicin 0.5 μM, 45Ca influx; read-out: Antagonist Calcium Uptake Test (IC50).
T1 construct: DRG nerve cells from the primary culture of 2 days were equilibrated; endogenous in cells; host or cells: primary culture of dorsal root ganglion neurons from neonatal SD rats
T1 sequence (O35433 whole entry): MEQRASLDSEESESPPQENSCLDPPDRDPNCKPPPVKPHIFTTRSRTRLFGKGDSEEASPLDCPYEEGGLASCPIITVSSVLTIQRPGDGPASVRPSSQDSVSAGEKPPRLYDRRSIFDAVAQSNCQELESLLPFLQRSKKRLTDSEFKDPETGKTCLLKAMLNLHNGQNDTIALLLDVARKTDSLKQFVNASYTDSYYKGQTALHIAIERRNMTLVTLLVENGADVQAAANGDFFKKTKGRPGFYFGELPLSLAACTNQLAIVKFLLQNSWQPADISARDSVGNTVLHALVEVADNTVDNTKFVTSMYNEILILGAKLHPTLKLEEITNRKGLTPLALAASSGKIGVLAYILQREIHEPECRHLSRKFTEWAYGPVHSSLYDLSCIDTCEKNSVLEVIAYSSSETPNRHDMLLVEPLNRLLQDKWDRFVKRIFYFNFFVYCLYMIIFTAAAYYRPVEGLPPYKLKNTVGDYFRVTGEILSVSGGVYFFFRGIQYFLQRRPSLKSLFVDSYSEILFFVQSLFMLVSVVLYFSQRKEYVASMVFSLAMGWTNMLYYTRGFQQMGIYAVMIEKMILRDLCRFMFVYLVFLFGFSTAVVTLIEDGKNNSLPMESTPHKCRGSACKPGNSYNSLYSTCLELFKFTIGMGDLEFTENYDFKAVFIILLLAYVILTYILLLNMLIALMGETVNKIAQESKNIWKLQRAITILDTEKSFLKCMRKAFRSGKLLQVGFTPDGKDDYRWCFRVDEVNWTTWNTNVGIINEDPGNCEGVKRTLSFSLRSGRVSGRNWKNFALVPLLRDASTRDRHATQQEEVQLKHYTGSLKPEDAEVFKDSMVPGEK
Assay type: cell-based
Procedure: 1) Separation of Spinal Dorsal Root Ganglia (DRG) in Newborn Rats and Primary Culture Thereof
Neonatal (2-3 day old or younger than 2-3 day old) SD rats were put in ice for 5 minutes to anesthetize and disinfected with 70% ethanol. […] The DRG were incubated sequentially at 37° C. for 30 mins in 200 U/ml collagenase and 2.5 mg/ml trypsin, separately. The ganglia were washed twice with DME/F12 medium supplemented with 10% horse serum, triturated through a fire-polished Pasteur pipette, filtered through Nitex 80 membrane to obtain single cell suspension and the suspension was washed once more. This was subjected to centrifugation, then resuspended in cell culture medium at certain level of cell density. As the cell culture medium, DME/F12 medium supplemented with 10% horse serum was diluted with identical medium conditioned by C6 glioma cells 2 days on a confluent monolayer (1:1), and NGF (Nerve Growth Factor) was added to adjust 200 ng/ml as final concentration. After the cells were grown 2 days in medium where cytosine arabinoside (Ara-C, 100 μM) was added to kill dividing nonneuronal cells, medium was changed to one without Ara-C. The resuspended cells were plated at a density of 1500-2000 neurons/well onto Terasaki plates previously coated with 10 μg/ml poly-D-ornithine.
2) ^45Ca Influx Experiments
DRG nerve cells from the primary culture of 2 days were equilibrated by washing 4 times with HEPES (10 mM, pH 7.4)-buffered Ca^2+, Mg^2+-free HBSS (H-HBSS). The solution in each well was removed from the individual well. Medium containing the test compound plus capsaicin (final concentration 0.5 μM) and ^45Ca (final concentration 10 μCi/ml) in H-HBSS was added to each well and incubated at room temperature for 10 mins. Terasaki plates were washed five times with H-HBSS and dried at room temperature. To each well, 0.3% SDS (10 μl) was added to elute ^45Ca. After the addition of scintillation cocktail of into each well, the amount of ^45Ca influx into neuron was measured by counting radioactivity.

IC50 [nM]	Compound
87	CCCc1nc(C(F)(F)F)ccc1/C=C/C(=O)N[C@H](C)c1ccc(NS(C)(=O)=O)c(F)c1 [Example 209, (R)-3-(2-Propyl-6-trifluoromethyl-pyridin-3-yl)-N-[1-(3-fluoro-4-methanesulfonylamino-phenyl)-ethyl]-acrylamide]
580	CS(=O)(=O)Nc1c(F)cc(CNC(=O)/C=C/c2ccc(C(F)(F)F)nc2N2CCCCC2)cc1F [Example 200, N-(4-Methanesulfonylamino-3,5-difluoro-benzyl)-3-(2-piperid-1-yl-6-trifluoromethyl-pyridin-3-yl)-acrylamide]
780	C#Cc1cc(CNC(=O)/C=C/c2ccc(C(F)(F)F)nc2CCCOC)cc(F)c1NS(C)(=O)=O [Example 155, N-(3-Ethynyl-5-fluoro-4-methanesulfonylamino-benzyl)-3-[2-(3-methoxy-propyl)-6-trifluoromethyl-pyridin-3-yl]-acrylamide]
280	C#Cc1cc(CNC(=O)/C=C/c2ccc(C(F)(F)F)nc2SCCC)cc(F)c1NS(C)(=O)=O [Example 185, N-(3-Ethynyl-5-fluoro-4-methanesulfonylamino-benzyl)-3-(2-propylthio-6-trifluoromethyl-pyridin-3-yl)-acrylamide]
> 10000	CS(=O)(=O)Nc1ccc(CNC(=O)/C=C/c2ccc(C(F)(F)F)nc2Cl)cc1F [Example 44, 3-(2-Chloro-6-trifluoromethyl-pyridin-3-yl)-N-(3-fluoro-4-methanesulfonylamino-benzyl)-acrylamide]
740	CCC/C(=C\C(=O)NCc1ccc(NS(C)(=O)=O)c(Cl)c1)c1ccc(C(F)(F)F)nc1CCC [Example 272]

Continued, compound first:

Compound	IC50 [nM]
CCCCCc1nc(C(F)(F)F)ccc1/C=C/C(=O)NCc1cc(F)c(NS(C)(=O)=O)c(F)c1 [Example 199, N-(3,5-Difluoro-4-methanesulfonylamino-benzyl)-3-(2-pentyl-6-trifluoromethyl)-pyridin-3-yl-acrylamide]	92
C#Cc1cc(CNC(=O)/C=C/c2ccc(C(F)(F)F)nc2N2CCC[C@H]2C(=O)OCc2ccccc2)cc(F)c1NS(C)(=O)=O [Example 71, N-(3-Ethynyl-5-fluoro-4-methanesulfonylamino-benzyl)-3-[2-(2-benzyloxycarbonyl-pyrrolidin-1-yl)-6-trifluoromethyl-pyridin-3-yl]-acrylamide]	> 10000
C#Cc1cc(CNC(=O)/C=C/c2ccc(C(F)(F)F)nc2-c2cccc(F)c2)cc(F)c1NS(C)(=O)=O [Example 120, N-(3-Ethynyl-5-fluoro-4-methanesulfonylamino-benzyl)-3-[2-(3-fluoro-phenyl)-6-trifluoromethyl-pyridin-3-yl]-acrylamide]	310
C[C@@H](NC(=O)/C=C/c1ccc(C(F)(F)F)nc1N1CCCCC1)c1ccc(NS(C)(=O)=O)c(F)c1 [Example 183, (R)—N-[1-(3-Fluoro-4-methanesulfonylamino-phenyl)-ethyl]-3-(2-piperid-1-yl-6-trifluoromethyl-pyridin-3-yl)-acrylamide]	220
COCC#Cc1nc(C(F)(F)F)ccc1/C=C/C(=O)NCc1ccc(NS(C)(=O)=O)c(F)c1 [Example 154, N-(3-Fluoro-4-methanesulfonylamino-benzyl)-3-[2-(3-methoxy-prop-1-ynyl)-6-trifluoromethyl-pyridin-3-yl]-acrylamide]	2100
CCCN(C)c1nc(C(F)(F)F)ccc1/C=C/C(=O)NCc1ccc(NS(C)(=O)=O)c(F)c1 [Example 158, N-(3-Fluoro-4-methanesulfonylamino-benzyl)-3-[2-(N-methyl-N-propyl-amino)-6-trifluoromethyl-pyridin-3-yl]-acrylamide]	480
C#Cc1cc(CNC(=O)/C=C/c2ccc(C(F)(F)F)nc2N2CCNCC2)cc(F)c1NS(C)(=O)=O [Example 116, N-(3-Ethynyl-5-fluoro-4-methanesulfonylamino-benzyl)-3-(2-piperaz-1-yl-6-trifluoromethyl-pyridin-3-yl)-acrylamide, HCl salt]	4500
C#Cc1cc(CNC(=O)/C=C/c2ccc(C(F)(F)F)nc2N2CCC(OC)C2)cc(F)c1NS(C)(=O)=O (centres unmarked) [Example 85]	180

Reference: US7858621B2 (Amorepacific Corporation, priority 2006, dated 2010)
